# According to US11981686B2, “Urea compound having substituent” (DAIICHI SANKYO COMPANY, LIMITED, priority 2019, dated 2024):
# Target: SIRT6 enzyme (Homo sapiens, UniProt Q8N6T7)
# Assay: Measurement of deacetylation activity (SIRT6, AlphaLISA, H3K9(Ac) peptide)
# Assay type: biochemical
# Settings: SIRT6 25 ng/mL, H3K9(Ac) biotin peptide 2 nM, NAD 10 μM, room temperature 30 minutes, duplicate
# Summary of the method: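 SIRT6 (25 ng/mL final) in Tris-HCl pH 8.0 buffer with compound (e.g. 0.046–100 μM final) reacted with biotin-H3K9(Ac) peptide (2 nM) and NAD+ (10 μM), 30 min, room temperature. Stopped with nicotinamide plus AlphaLISA anti-unmodified H3K9/K27 beads, 60 min; EC150 (150% relative activity) from sigmoidal fit.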
# Chain of SIRT6 enzyme (Q8N6T7 whole entry, species assumed): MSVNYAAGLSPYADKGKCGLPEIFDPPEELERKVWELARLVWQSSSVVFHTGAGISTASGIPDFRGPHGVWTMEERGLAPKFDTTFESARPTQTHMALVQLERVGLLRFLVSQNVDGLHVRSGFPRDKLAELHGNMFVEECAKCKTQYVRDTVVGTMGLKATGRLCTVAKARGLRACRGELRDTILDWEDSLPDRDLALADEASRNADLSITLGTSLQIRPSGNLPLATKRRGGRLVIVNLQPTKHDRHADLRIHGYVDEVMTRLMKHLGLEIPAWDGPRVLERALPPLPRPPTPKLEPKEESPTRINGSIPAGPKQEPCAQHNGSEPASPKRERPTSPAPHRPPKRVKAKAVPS
row,Compound,EC150 (the concentration of the compound showing a relative enzyme activity of 150%)
1,"O=C(Nc1nc2c(s1)[C@@H]1COC[C@H](C2)N1c1nc(-c2ccc(F)cc2)no1)N[C@H]1C[C@H](O)C1 [Example 86, N-{(4S,8S)-10-[3-(4-fluorophenyl)-1,2,4-oxadiazol-5-yl]-4,7,8,9-tetrahydro-5H-4,8-epiminooxocino[5,4-d][1,3]thiazol-2-yl}-N′-[(1r,3S)-3-hydroxycyclobutyl]urea]",0.25 μm
2,"CNC(=O)Nc1nc2c(s1)[C@H]1CN(C(C)=O)C[C@@H](C2)N1c1nc(-c2ccc(F)cc2)no1 (relative stereo) [Example 23, (−)-N-{(4R*,8R*)-6-acetyl-10-[3-(4-fluorophenyl)-1,2,4-oxadiazol-5-yl]-4,5,6,7,8,9-hexahydro-4,8-epimino[1,3]thiazolo[5,4-d]azocin-2-yl}-N′-methylurea]",0.19 μm
3,"O=C(Nc1nc2c(s1)CN(c1nc(C3CCC(F)(F)C3)no1)CC2)N[C@H]1C[C@H](O)C1 (stereo partly drawn) [Example 35, N-{5-[3-(3,3-difluorocyclopentyl)-1,2,4-oxadiazol-5-yl]-4,5,6,7-tetrahydro[1,3]thiazolo[5,4-c]pyridin-2-yl}-N′-[(1r,3r)-3-hydroxycyclobutyl]urea]",1 μm
4,"O=C(NCc1cncnc1)Nc1nc2c(s1)CN(c1nc(C3CCC(F)(F)CC3)no1)CC2 [Example 99, N-{5-[3-(4,4-difluorocyclohexyl)-1,2,4-oxadiazol-5-yl]-4,5,6,7-tetrahydro[1,3]thiazolo[5,4-c]pyridin-2-yl}-N′-[(pyrimidin-5-yl)methyl]urea]",1.1 μm
5,"C[C@H](CO)NC(=O)Nc1nc2c(s1)C1COCC(C2)N1c1nc(-c2ccc(F)cc2)no1 (stereo partly drawn) [Example 18, N-{10-[3-(4-fluorophenyl)-1,2,4-oxadiazol-5-yl]-4,7,8,9-tetrahydro-5H-4,8-epiminooxocino[5,4-d][1,3]thiazol-2-yl}-N′-[(2R)-1-hydroxypropan-2-yl]urea]",0.95 μm
6,"C[C@H](CO)NC(=O)Nc1nc2c(s1)CN(c1nc3cc(S(C)(=O)=O)ccc3o1)C(C)(C)C2 [Example 74, N-[(2R)-1-hydroxypropan-2-yl]-N′-{5-[5-(methanesulfonyl)-1,3-benzoxazol-2-yl]-6,6-dimethyl-4,5,6,7-tetrahydro[1,3]thiazolo[5,4-c]pyridin-2-yl}urea]",0.68 μm
7,"Cn1cnc(CNC(=O)Nc2nc3c(s2)CN(c2nc(C4CCC(F)(F)CC4)no2)CC3)n1 [Example 106, N-{5-[3-(4,4-difluorocyclohexyl)-1,2,4-oxadiazol-5-yl]-4,5,6,7-tetrahydro[1,3]thiazolo[5,4-c]pyridin-2-yl}-N′-[(1-methyl-1H-1,2,4-triazol-3-yl)methyl]urea]",2.4 μm
8,"CNC(=O)Nc1nc2c(s1)C1CN(C(C)=O)CC(C2)N1c1ncc(-c2cccc(OC)n2)o1 (stereo not drawn) [Example 129, N-{6-acetyl-10-[5-(6-methoxypyridin-2-yl)-1,3-oxazol-2-yl]-4,5,6,7,8,9-hexahydro-4,8-epimino[1,3]thiazolo[5,4-d]azocin-2-yl}-N′-methylurea]",0.38 μm
9,"C[C@@H](O)CNC(=O)Nc1nc2c(s1)[C@@H]1COC[C@H](C2)N1c1ncc(-c2cccc(C(F)F)c2)o1 [Example 72, N-[(4S,8S)-10-{5-[3-(difluoromethyl)phenyl]-1,3-oxazol-2-yl}-4,7,8,9-tetrahydro-5H-4,8-epiminooxocino[5,4-d][1,3]thiazol-2-yl]-N′-[(2R)-2-hydroxypropyl]urea]",0.36 μm
10,"CNC(=O)Nc1nc2c(s1)C1COCC(C2)N1c1nnc(-c2cccc(OC(C)(C)C)c2)o1 (stereo not drawn) [Example 111, N-{10-[5-(3-tert-butoxyphenyl)-1,3,4-oxadiazol-2-yl]-4,7,8,9-tetrahydro-5H-4,8-epiminooxocino[5,4-d][1,3]thiazol-2-yl}-N′-methylurea]",2.2 μm
11,"CNC(=O)Nc1nc2c(s1)C1COCC(C2)N1c1ncc(-c2cccc(C(=O)C3CC3)c2F)o1 (stereo not drawn) [Example 116, N-(10-{5-[3-(cyclopropanecarbonyl)-2-fluorophenyl]-1,3-oxazol-2-yl}-4,7,8,9-tetrahydro-5H-4,8-epiminooxocino[5,4-d][1,3]thiazol-2-yl)-N′-methylurea]",3.1 μm
12,"CNC(=O)Nc1nc2c(s1)CN(c1nc(C3CCCC(F)(F)C3)no1)CC2 (stereo not drawn) [Example 36, N-{5-[3-(3,3-difluorocyclohexyl)-1,2,4-oxadiazol-5-yl]-4,5,6,7-tetrahydro[1,3]thiazolo[5,4-c]pyridin-2-yl}-N′-methylurea]",1.9 μm
13,"CNC(=O)Nc1nc2c(s1)CN(c1nc(C34CCC(F)(CC3)C4)no1)CC2 [Example 93, N-{5-[3-(4-fluorobicyclo[2.2.1]heptan-1-yl)-1,2,4-oxadiazol-5-yl]-4,5,6,7-tetrahydro[1,3]thiazolo[5,4-c]pyridin-2-yl}-N′-methylurea]",0.7 μm
14,"COC(=O)N1C[C@H]2Cc3nc(NC(=O)NCC(C)(C)O)sc3[C@@H](C1)N2c1nc(C2(C(F)(F)F)CC2)no1 (relative stereo) [Example 33, Methyl (4R*,8R*)-2-{[(2-hydroxy-2-methylpropyl)carbamoyl]amino}-10-{3-[1-(trifluoromethyl)cyclopropyl]-1,2,4-oxadiazol-5-yl}-4,7,8,9-tetrahydro-4,8-epimino[1,3]thiazolo[5,4-d]azocine-6(5H)-carboxylate]",1.6 μm
15,"O=C(NCC1(O)CCOCC1)Nc1nc2c(s1)[C@@H]1COC[C@H](C2)N1c1nc2cc(Cl)ccc2o1 [Example 150, N-[(4S,8S)-10-(5-chloro-1,3-benzoxazol-2-yl)-4,7,8,9-tetrahydro-5H-4,8-epiminooxocino[5,4-d][1,3]thiazol-2-yl]-N′-[(4-hydroxyoxan-4-yl)methyl]urea]",0.43 μm
16,"CCOC(=O)N1CC2Cc3nc(NC(=O)NC)sc3C(C1)N2c1nc(C2(C(F)(F)F)CC2)no1 (stereo not drawn) [Example 134, Ethyl 2-[(methylcarbamoyl)amino]-10-{3-[1-(trifluoromethyl)cyclopropyl]-1,2,4-oxadiazol-5-yl}-4,7,8,9-tetrahydro-4,8-epimino[1,3]thiazolo[5,4-d]azocine-6(5H)-carboxylate]",3.5 μm
17,"Cc1cc2nc(N3[C@@H]4COC[C@H]3c3sc(NC(=O)N[C@H](C)CO)nc3C4)oc2cc1C [Example 148, N-[(4S,8S)-10-(5,6-dimethyl-1,3-benzoxazol-2-yl)-4,7,8,9-tetrahydro-5H-4,8-epiminooxocino[5,4-d][1,3]thiazol-2-yl]-N′-[(2R)-1-hydroxypropan-2-yl]urea]",0.95 μm
18,"O=C(Nc1nc2c(s1)[C@@H]1COC[C@H](C2)N1c1ncc(-c2cccc(OC(F)F)n2)o1)NC1CCS(=O)(=O)CC1 [Example 180, N-[(4S,8S)-10-{5-[6-(difluoromethoxy)pyridin-2-yl]-1,3-oxazol-2-yl}-4,7,8,9-tetrahydro-5H-4,8-epiminooxocino[5,4-d][1,3]thiazol-2-yl]-N′-(1,1-dioxo-1λ^6 thian-4-yl)urea]",0.14 μm
19,"COc1cccc(-c2cnc(N3[C@@H]4COC[C@H]3c3sc(NC(=O)NCC(C)(C)O)nc3C4)o2)n1 [Example 184, N-(2-hydroxy-2-methylpropyl)-N′-{(4S,8S)-10-[5-(6-methoxypyridin-2-yl)-1,3-oxazol-2-yl]-4,7,8,9-tetrahydro-5H-4,8-epiminooxocino[5,4-d][1,3]thiazol-2-yl}urea]",0.91 μm
20,"O=C(Nc1nc2c(s1)[C@@H]1COC[C@H](C2)N1c1cc(-c2ccc(F)cc2)on1)N[C@H]1C[C@@H](O)C1 [Example 158, N-{(4S,8S)-10-[5-(4-fluorophenyl)-1,2-oxazol-3-yl]-4,7,8,9-tetrahydro-5H-4,8-epiminooxocino[5,4-d][1,3]thiazol-2-yl}-N′-[(1s,3R)-3-hydroxycyclobutyl]urea]",1.1 μm
21,"COCCNC(=O)Nc1nc2c(s1)CN(c1nc(C3CC(F)(F)CCO3)no1)CC2 (stereo not drawn) [Example 98, N-{5-[3-(4,4-difluorooxan-2-yl)-1,2,4-oxadiazol-5-yl]-4,5,6,7-tetrahydro[1,3]thiazolo[5,4-c]pyridin-2-yl}-N′-(2-methoxyethyl)urea]",2.6 μm
22,"C[C@H](CO)NC(=O)Nc1nc2c(s1)C1COCC(C2)N1c1nc(-c2cccc(C(F)F)c2)no1 (stereo partly drawn) [Example 124, N-(10-{3-[3-(difluoromethyl)phenyl]-1,2,4-oxadiazol-5-yl}-4,7,8,9-tetrahydro-5H-4,8-epiminooxocino[5,4-d][1,3]thiazol-2-yl)-N′-[(2R)-1-hydroxypropan-2-yl]urea]",0.39 μm
23,"O=C(NCC1(O)CC1)Nc1nc2c(s1)[C@@H]1COC[C@H](C2)N1c1ncc(-c2cccc(OC(F)F)n2)o1 [Example 179, N-[(4S,8S)-10-{5-[6-(difluoromethoxy)pyridin-2-yl]-1,3-oxazol-2-yl}-4,7,8,9-tetrahydro-5H-4,8-epiminooxocino[5,4-d][1,3]thiazol-2-yl]-N′-[(1-hydroxycyclopropyl)methyl]urea]",0.72 μm
24,"CC(C)(O)CNC(=O)Nc1nc2c(s1)[C@@H]1COC[C@H](C2)N1c1nc2cc(OCF)ccc2o1 [Example 57, N-{(4S,8S)-10-[5-(fluoromethoxy)-1,3-benzoxazol-2-yl]-4,7,8,9-tetrahydro-5H-4,8-epiminooxocino[5,4-d][1,3]thiazol-2-yl}-N′-(2-hydroxy-2-methylpropyl)urea]",0.93 μm
